In patent publication US10800732B2, “Substituted malonamides and their use as antibacterial drugs” (National Taiwan University, priority 2015, dated 2020):
In brackets after ≈: the same amount, converted by molar mass. Several values for one entry are separate records, joined by “and”; a condition that tells them apart may be missing. Identical values can stand only once. Like-named read-outs stand apart in the source and are kept apart here.

Legend:
[1] = system: S. aureus NCTC 8325; assay: MIC, S. aureus NCTC 8325 (CLSI broth microdilution / agar dilution); format: cell-based, Staphylococcus aureus
[2] = system: S. aureus ATCC 12598; assay: MIC, S. aureus ATCC 12598; format: cell-based, Staphylococcus aureus
[3] = system: S. epidermidis ATCC 12228; assay: MIC, S. epidermidis ATCC 12228; format: cell-based; details: S. epidermidis ATCC 12228
[4] = system: S. epidermidis ATCC 35984; assay: MIC, S. epidermidis ATCC 35984; format: cell-based
[5] = system: MRSA ATCC 33592; assay: MIC, MRSA ATCC 33592; format: cell-based, methicillin-resistant Staphylococcus aureus; details: MRSA ATCC 33592
[6] = system: MRSA ATCC 49476; assay: MIC, MRSA ATCC 49476; format: cell-based, methicillin-resistant Staphylococcus aureus; details: MRSA ATCC 49476
[7] = system: MRSA SCCmec VT; assay: MIC, MRSA SCCmec VT; format: cell-based, methicillin-resistant Staphylococcus aureus
[8] = system: HEK-293; assay: Antiproliferative activity, HEK-293; format: cell-based, human; details: for IC50: HEK-293, antiproliferative
Method: (§1) In addition to the antibacterial activities, the cytotoxic effects of these malonate derivatives on human cancer cell lines were also assessed.

[9] = system: K-562; assay: Antiproliferative activity, K-562; format: cell-based, human; details: for IC50: K-562, antiproliferative
Method: as §1

[10] = system: HT-29; assay: Antiproliferative activity, HT-29; format: cell-based, human; details: for IC50: HT-29, antiproliferative
Method: as §1

[11] = system: S. haemolyticus (ATCC 29970); assay: MIC, S. haemolyticus; format: cell-based
[12] = system: S. hominis (ATCC 27844); assay: MIC, S. hominis; format: cell-based
[13] = system: S. saprophyticus (ATCC 15305); assay: MIC, S. saprophyticus; format: cell-based
[14] = system: S. lugdunesis (NTUH isolate); assay: MIC, S. lugdunesis; format: cell-based
[15] = system: clinical isolated VISA strain; assay: MIC, VISA; format: cell-based, vancomycin-intermediate Staphylococcus aureus; details: VISA, clinical isolate
[16] = system: Clinical isolated MRSAs; assay: MIC90, one hundred clinical isolated MRSA strains; format: cell-based, methicillin-resistant Staphylococcus aureus; details: one hundred clinical isolated MRSA from NTUH, concentration that inhibits 90% of strains tested
[17] = system: Enterococcus faecalis ATCC 19433; assay: MIC, Enterococcus faecalis; format: cell-based
[18] = system: Enterococcus faecium ATCC 35667; assay: MIC, Enterococcus faecium ATCC 35667; format: cell-based
[19] = system: Enterococcus faecium ATCC 19434; assay: MIC, Enterococcus faecium ATCC 19434; format: cell-based
[20] = system: VR-E. faecium; assay: MIC, VR-E. faecium; format: cell-based, vancomycin resistant Enterococcus faecium
[21] = system: Bacillus cereus ATCC 11778; assay: MIC, Bacillus cereus; format: cell-based
[22] = system: Bacillus subtilis BCRC 10255; assay: MIC, Bacillus subtilis; format: cell-based
[23] = system: Corynebacterium diphtheriae ATCC 11913; assay: MIC, Corynebacterium diphtheriae; format: cell-based
[24] = system: Listeria monocytogenes ATCC 19113; assay: MIC, Listeria monocytogenes; format: cell-based
[25] = system: Streptococcus pyogenes ATCC 19615; assay: MIC, Streptococcus pyogenes; format: cell-based
[26] = system: Clostridium difficile 630; assay: MIC, Clostridium difficile 630; format: cell-based
[27] = system: Clostridium difficile R20291; assay: MIC, Clostridium difficile R20291; format: cell-based
[28] = system: Mycobacterium tuberculosis H37Ra; assay: MIC, Mycobacterium tuberculosis; format: cell-based
[29] = system: S. aureus NCTC 8325; assay: Time-kill kinetics; format: cell-based, Staphylococcus aureus; details: for reduction in CFU: 24-h treatment period; for bactericidal / bacteriostatic classification: killing over 99.9% of inoculum within 24 hours
[30] = system: MSSA ATCC 29213 or MRSA ATCC 33592; assay: Survival of MSSA- or MRSA-infected C. elegans; format: in vivo, Caenorhabditis elegans; details: 2- to 8-folds of MIC in S-medium, versus DMSO control
Method: (§2) FIG. 2. SC5005 protects C. elegans from S. aureus infection. Effect of SC78 and SC5005 on the survival of MSSA- or MRSA-infected C. elegans was assessed. The glp-4(bn2) C. elegans were fed on E. coli (OP50), MSSA (ATCC 29213) or MRSA (ATCC 33592) followed by exposing to SC78 or SC5005 at concentrations of 2-, 4-, 8-folds of respective MIC in S-medium. The survival of worms was monitored daily till the end of the study. The survival of animals fed with E. coli (OP50) and receiving DMSO only was served as a control to show the normal life-span of C. elegans.
Caenorhabditis elegans has been broadly used as a model host for the studies of human infectious diseases, including infections caused by S. aureus. To investigate whether SC78 and SC5005 can suppress the infection of S. aureus in C. elegans, worms were infected with MSSA ATCC 29213 or MRSA ATCC 33592 followed by exposing to individual drugs at concentrations of 2- to 8-folds of respective MIC in S-medium. Control groups were treated with DMSO at concentration equal to that of drug treated groups (final concentration, 0.1%).

[31] = system: C. elegans; assay: Toxic effects on E. coli (OP50)-fed C. elegans; format: in vivo, Caenorhabditis elegans; details: escalating doses in S-medium
Method: as §2
Meanwhile, the toxic effects of these agents on C. elegans were also assessed. E. coli (OP50)-fed worms were exposed to escalating doses of SC78 and SC5005 in S-medium followed by monitoring of their survival daily.

[32] = system: S. aureus NCTC 8325; format: cell-based, Staphylococcus aureus; details: 200-day exposure to sub-lethal concentrations
[33] = S. epidermidis (ATCC 35984), Table 3
[34] = Staphylococcus aureus, read-out: MIC
[35] = Clostridioides difficile, read-out: MIC

O=C(Nc1ccc(Cl)c(C(F)(F)F)c1)Nc1ccc(Cl)c(C(F)(F)F)c1 [SC78]
MIC ([1]; S. aureus (NCTC 8325), Table 3): 0.25 µg/mL (≈ 0.599 µM) | MIC ([1]; S. aureus NCTC 8325, Table 2): 0.25 µg/mL (≈ 0.599 µM) | MIC ([1]; Staphylococcus aureus, NCTC8325, S. aureus NCTC 8325, read-out: MIC): 0.25 µg/mL (≈ 0.599 µM) | MIC ([2]; Staphylococcus aureus, ATCC12598, read-out: MIC): 0.25 µg/mL (≈ 0.599 µM) | MIC ([3]; Staphylococcus epidermidis, ATCC12228, read-out: MIC): 0.25 µg/mL (≈ 0.599 µM) | MIC [4, 33]: 0.25 µg/mL (≈ 0.599 µM) | MIC ([4]; Staphylococcus epidermidis, ATCC35984, S. epidermidis ATCC 35984, read-out: MIC): 0.25 µg/mL (≈ 0.599 µM) | MIC [5, 34]: 0.25 µg/mL (≈ 0.599 µM) | MIC [6, 34]: 25 µg/mL (≈ 59.9 µM) | MIC ([7]; Staphylococcus aureus, MRSA SCCmec VT, read-out: MIC): 0.25 µg/mL (≈ 0.599 µM) | IC50 ([8]; Homo sapiens, HEK293, read-out: IC50): 1.13 µg/mL (≈ 2.71 µM) | Selectivity ratio ([8]; IC50 (HEK-293)/MIC against S. aureus): 4.52 | IC50 ([9]; Homo sapiens, K562, read-out: IC50): 4.73 µg/mL (≈ 11.3 µM) | Selectivity ratio ([9]; IC50 (K-562)/MIC against S. aureus): 18.92 | IC50 ([10]; Homo sapiens, read-out: IC50): 4.51 µg/mL (≈ 10.8 µM) | Selectivity ratio ([10]; IC50 (HT-29)/MIC against S. aureus): 18.04 | MIC ([11]; Staphylococcus haemolyticus, ATCC29970, read-out: MIC): 0.5 µg/mL (≈ 1.2 µM) | MIC ([12]; Staphylococcus hominis, ATCC27844, read-out: MIC): 0.25 µg/mL (≈ 0.599 µM) | MIC ([13]; Staphylococcus saprophyticus, ATCC15305, read-out: MIC): 0.25 µg/mL (≈ 0.599 µM) | MIC ([14]; read-out: MIC): 0.25 µg/mL (≈ 0.599 µM) | MIC [15, 34]: 0.25 µg/mL (≈ 0.599 µM) | MIC90 ([16]; Staphylococcus aureus, read-out: MIC90): 0.25 µg/mL (≈ 0.599 µM) | MIC ([17]; ATCC19433, read-out: MIC): 0.25 µg/mL (≈ 0.599 µM) | MIC ([18]; ATCC35667, read-out: MIC): 0.25 µg/mL (≈ 0.599 µM) | MIC ([19]; ATCC19434, read-out: MIC): 0.5 µg/mL (≈ 1.2 µM) | MIC ([20]; Enterococcus faecium, read-out: MIC): 0.25 µg/mL (≈ 0.599 µM) | MIC ([21]; ATCC11778, read-out: MIC): 0.25 µg/mL (≈ 0.599 µM) | MIC ([22]; BCRC10255, read-out: MIC): 0.25 µg/mL (≈ 0.599 µM) | MIC ([23]; ATCC11913, read-out: MIC): 0.25 µg/mL (≈ 0.599 µM) | MIC ([24]; ATCC19113, read-out: MIC): 0.0625 µg/mL (≈ 0.15 µM) | MIC ([25]; ATCC19615, read-out: MIC): 0.25 µg/mL (≈ 0.599 µM) | MIC [26, 35]: 0.5 µg/mL (≈ 1.2 µM) | MIC [27, 35]: 0.25 µg/mL (≈ 0.599 µM) | MIC ([28]; read-out: MIC): 1 µg/mL (≈ 2.4 µM) | reduction in CFU ([29]; 8-folds of MIC): over 99.9% | bactericidal / bacteriostatic classification [29]: bactericidal | survival of MSSA- or MRSA-infected worms [30]: no significant difference was observed in the survival | survival of worms fed with OP50 (toxicity) [31]: significantly decreased | resistance after consecutive exposure [32]: no resistance was observed

O=C(Nc1ccc(Cl)c(C(F)(F)F)c1)C(CCCl)C(=O)Nc1ccc(Cl)c(C(F)(F)F)c1 [SC5005]
MIC ([1]; MSSA NCTC 8325, Table 6): 0.5 µg/mL (≈ 0.958 µM) | MIC ([1]; S. aureus (NCTC 8325), Table 3): 0.5 µg/mL (≈ 0.958 µM) | MIC ([1]; S. aureus NCTC 8325): 0.5 µg/mL (≈ 0.958 µM) | MIC ([1]; S. aureus NCTC 8325, Table 2): 0.5 µg/mL (≈ 0.958 µM) | MIC [2]: 0.5 µg/mL (≈ 0.958 µM) | MIC [3]: 0.5 µg/mL (≈ 0.958 µM) | MIC [4, 33]: 0.5 µg/mL (≈ 0.958 µM) | MIC ([4]; S. epidermidis ATCC 35984): 0.5 µg/mL (≈ 0.958 µM) | MIC [5]: 0.5 µg/mL (≈ 0.958 µM) | MIC ([5]; Table 6): 0.5 µg/mL (≈ 0.958 µM) | MIC [6]: 0.5 µg/mL (≈ 0.958 µM) | MIC ([7]; MRSA SCCmec VT): 0.5 µg/mL (≈ 0.958 µM) | MIC ([7]; SCCmec VT, Table 6): 0.5 µg/mL (≈ 0.958 µM) | IC50 [8]: 16.79 µg/mL (≈ 32.2 µM) | IC50 [9]: 20.23 µg/mL (≈ 38.8 µM) | IC50 [10]: 14.56 µg/mL (≈ 27.9 µM) | MIC [11]: 1 µg/mL (≈ 1.92 µM) | MIC [12]: 0.25 µg/mL (≈ 0.479 µM) | MIC [13]: 0.5 µg/mL (≈ 0.958 µM) | MIC [14]: 0.5 µg/mL (≈ 0.958 µM) | MIC [15]: 0.5 µg/mL (≈ 0.958 µM) | MIC90 [16]: 0.5 mg/L and 0.5^b mg/L | MIC [17]: 0.5 µg/mL (≈ 0.958 µM) | MIC [18]: 0.5 µg/mL (≈ 0.958 µM) | MIC [19]: 1 µg/mL (≈ 1.92 µM) | MIC [20]: 0.5 µg/mL (≈ 0.958 µM) | MIC [21]: 0.5 µg/mL (≈ 0.958 µM) | MIC [22]: 0.5 µg/mL (≈ 0.958 µM) | MIC [23]: 0.5 µg/mL (≈ 0.958 µM) | MIC [24]: 0.125 µg/mL (≈ 0.24 µM) | MIC [25]: 0.5 µg/mL (≈ 0.958 µM) | MIC [26]: 0.5 µg/mL (≈ 0.958 µM) | MIC [27]: 0.5 µg/mL (≈ 0.958 µM) | MIC [28]: 16 µg/mL (≈ 30.7 µM) | reduction in CFU ([29]; 4-folds of MIC): 99.91% | reduction in CFU ([29]; 8-folds of MIC): 99.95% | bactericidal / bacteriostatic classification [29]: bactericidal | survival of MSSA- or MRSA-infected worms [30]: significant increase in the mean survival | survival of worms fed with OP50 (toxicity) [31]: didn't affect the survival | resistance after consecutive exposure [32]: no resistance was observed
